The target of this assay is T1, human WT SLC26A9 (Homo sapiens, UniProt Q7LBE3).
T1 construct: expressed in transfected cells
T1 sequence (Q7LBE3 1-791): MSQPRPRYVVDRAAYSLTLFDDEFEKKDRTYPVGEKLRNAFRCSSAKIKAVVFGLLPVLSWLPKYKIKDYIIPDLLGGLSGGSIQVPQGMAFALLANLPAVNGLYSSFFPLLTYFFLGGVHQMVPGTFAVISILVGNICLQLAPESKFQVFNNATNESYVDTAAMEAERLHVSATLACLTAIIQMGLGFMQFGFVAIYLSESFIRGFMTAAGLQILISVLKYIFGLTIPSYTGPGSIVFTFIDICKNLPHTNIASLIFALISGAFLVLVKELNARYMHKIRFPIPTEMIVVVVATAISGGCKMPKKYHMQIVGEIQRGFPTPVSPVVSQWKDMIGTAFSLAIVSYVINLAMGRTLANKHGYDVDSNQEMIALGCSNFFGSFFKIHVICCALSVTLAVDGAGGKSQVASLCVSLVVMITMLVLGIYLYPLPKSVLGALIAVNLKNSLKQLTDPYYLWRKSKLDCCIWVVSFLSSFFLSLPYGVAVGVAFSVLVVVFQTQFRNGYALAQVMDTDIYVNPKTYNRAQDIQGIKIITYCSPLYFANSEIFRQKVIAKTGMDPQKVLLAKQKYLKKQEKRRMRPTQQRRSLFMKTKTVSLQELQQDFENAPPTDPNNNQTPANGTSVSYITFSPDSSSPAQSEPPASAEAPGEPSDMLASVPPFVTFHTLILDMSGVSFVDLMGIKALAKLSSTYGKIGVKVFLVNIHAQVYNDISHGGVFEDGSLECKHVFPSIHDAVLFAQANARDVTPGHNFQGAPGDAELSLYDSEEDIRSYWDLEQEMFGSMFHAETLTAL
Nature of the assay: SLC26A9 Cl−/I− exchange activity, YFP fluorescence in LN-215 cells. The assay is classed as cell-based. To be noted: 100 μM, FIG. 3. The procedure:
Chinese hamster ovary (CHO)-K1 cells or LN-215 cells were cultured in DMEM medium containing 10% fetal bovine serum (FBS), 100 units/ml of penicillin and 100 μg/ml streptomycin. CHO-K1 cells or LN-215 cells were stably transfected with pcDNA3.1 encoding the halide sensor YFP-H148Q/I152L/F46L and human wild-type (WT)-SLC26A9. Fisher rat thyroid (FRT) cells stably transfected with YFP-H148Q/I152L/F46L and human wild type (WT)-CFTR or human wild type (WT)-ANO1 were cultured in DMEM/F-12 medium containing 10% fetal bovine serum (FBS), 100 units/ml of penicillin, and 100 μg/ml of streptomycin.
LN-215 cells expressing human WT SLC26A9 and YFP-F46L/H148Q/I152L, and FRT cells expressing human WT CFTR or ANO1 and YFP-F46L/H148Q/I152L were plated in 96-well microplates at a density of 2×10^4 cells per well, and cultured for 48 hours. […] After culturing at 37° C. for 10 minutes, the 96-well plate was located on the FLUOstar Omega Microplate Reader (BMG Labtech, Ortenberg, Germany) for a fluorescence assay. For assay of the activity of […], fluorescence was recorded continuously (400 ms per point) for 1 second (baseline), whereby each well was assayed individually for SLC26A9-mediated I-influx. Then, 50 μL of NaI-substituted HEPES buffered solution (replacing NaCl with NaI) was added using a liquid injector at 1 second, and YFP fluorescence was recorded for 6 seconds. […]

Take `Cc1ccc2[nH]c(C(=O)O)c(CC(=O)N3CCN(c4c(C)cccc4Cl)CC3)c2c1` [YPI-A4948, 3-(2-(4-(2-Chloro-6-methylphenyl)piperazin-1-yl)-2-oxoethyl)-5-methyl-1H-indole-2-carboxylic acid]: the “Effect on activity of SLC26A9” value is “did not inhibit”.

Turning to `Cc1ccc(C)c(N2CCN(C(=O)Cc3c(C(=O)O)[nH]c4ccc(Cl)cc34)CC2)c1` [YPI-H05, 5-chloro-3-(2-(4-(2,5-dimethylphenyl)piperazin-1-yl-)-2-oxoethyl)-1H-indole-2-carboxylic acid], the “Effect on activity of SLC26A9” value is recorded as “did not inhibit”.

For the origin of these results see US20240287042A1, “NOVEL COMPOUND HAVING INHIBITORY ACTIVITY AGAINST PENDRIN, AND PHARMACEUTICAL USES THEREOF” (UIF (University Industry Foundation), Yonsei University, priority 2021, published 2024).
